This passage reports TGI results from PubChem BioAssay (NCI).

Some test systems named below: SW-620 colon; TK-10 renal; HOP-62 NSCLC; HL-60(TB) leukemia; KM12 colon; HOP-92 NSCLC; MDA-MB-435; A549 NSCLC; OVCAR-3 ovarian; MDA-MB-231 breast; IGROV1 ovarian; UACC-257 melanoma; ACHN renal; OVCAR-4 ovarian; SK-MEL-28 melanoma; SF-539 CNS; CCRF-CEM leukemia; SNB-19 CNS; MALME-3M melanoma; T-47D breast.
Common to all, as to experiment: NCI anticancer screen, dose series, 48 h

The structures appear in SMILES notation.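 Grown in 96-well plates, cells were treated for 48 hours with each compound at five concentrations. Insufficient inhibition: endpoint recorded as highest concentration tested. TGI: total growth inhibition.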

Turning to `COC(=O)/C(=N\N)C(C(=O)C(=O)Nc1cccc([N+](=O)[O-])c1)c1nc2ccc(C(=O)c3ccccc3)cc2[nH]c1=O` (configuration not stated), the TGI with SW-620 colon, with TK-10 renal, in the test on HOP-62 NSCLC, with HL-60(TB) leukemia, with KM12 colon and in the test on HOP-92 NSCLC was over 100 µM in each case. The TGI in the test on MDA-MB-435, in the test with A549 NSCLC, with OVCAR-3 ovarian, with MDA-MB-231 breast, in the test on IGROV1 ovarian and in the test on UACC-257 melanoma was over 100 µM in each case. Besides, the TGI with ACHN renal is over 100 µM; in the test with OVCAR-4 ovarian, over 100 µM; with SK-MEL-28 melanoma, over 100 µM; with SF-539 CNS, over 100 µM; in the test with CCRF-CEM leukemia, 79.4 µM; in the test with SNB-19 CNS it was over 100 µM.
`Cc1ccc(S(=O)(=O)NC(=O)NC(C(=O)O)C(C)O)cc1` (configuration not stated): the TGI in the test on SW-620 colon, with TK-10 renal, in the test on HOP-62 NSCLC, with HL-60(TB) leukemia, in the test with KM12 colon and in the test with MALME-3M melanoma was over 100 µM in each case. The TGI in the test on HOP-92 NSCLC, in the test with A549 NSCLC, with MDA-MB-231 breast, with IGROV1 ovarian, in the test on UACC-257 melanoma and in the test with ACHN renal was over 100 µM each time. Besides, the TGI with T-47D breast, in the test with OVCAR-4 ovarian, in the test on SK-MEL-28 melanoma, in the test on SF-539 CNS, with CCRF-CEM leukemia and in the test on SNB-19 CNS was over 100 µM in each case.
With `COc1cccc(CCn2c(N)c(C(=O)O)c3ccc([N+](=O)[O-])cc3c2=O)c1`, the TGI in the test on SW-620 colon, in the test on HOP-62 NSCLC, with HL-60(TB) leukemia, in the test with MALME-3M melanoma, in the test on MDA-MB-435 and in the test on A549 NSCLC was over 100 µM throughout. Besides, the TGI in the test on OVCAR-3 ovarian was over 100 µM; with MDA-MB-231 breast, 72.8 µM; in the test with IGROV1 ovarian, over 100 µM; in the test on ACHN renal, over 100 µM; in the test on T-47D breast, over 100 µM; in the test with OVCAR-4 ovarian it was over 100 µM. In addition, the TGI in the test with SK-MEL-28 melanoma, in the test with CCRF-CEM leukemia and in the test on SNB-19 CNS was over 100 µM each time.
Take `CC(C)(O)/C=C\P(C)(=O)c1ccccc1` (configuration not stated): the TGI with SW-620 colon, in the test with TK-10 renal, with HOP-62 NSCLC, in the test on KM12 colon, in the test on MALME-3M melanoma and with HOP-92 NSCLC was over 100 µM throughout. Besides, the TGI in the test on MDA-MB-435, in the test on A549 NSCLC, in the test on OVCAR-3 ovarian, in the test on IGROV1 ovarian, with UACC-257 melanoma and with ACHN renal was over 100 µM in each case. Further, the TGI with T-47D breast, with OVCAR-4 ovarian, in the test with SK-MEL-28 melanoma, with SF-539 CNS and with SNB-19 CNS was over 100 µM each time.
For the compound `O=C1NC(=O)[C@@H](OCC2CCCCC2)[C@@H]2OCC3OC(C(O)C3O)C12` (some centres not stated), the TGI in the test with SW-620 colon, in the test with TK-10 renal, in the test on HOP-62 NSCLC, with HL-60(TB) leukemia, in the test on KM12 colon and in the test on MALME-3M melanoma was over 100 µM throughout. Further, the TGI in the test with MDA-MB-435, with A549 NSCLC, in the test with OVCAR-3 ovarian, with MDA-MB-231 breast, in the test with IGROV1 ovarian and in the test with UACC-257 melanoma was over 100 µM throughout. The TGI in the test on ACHN renal, with T-47D breast, with OVCAR-4 ovarian, in the test with SK-MEL-28 melanoma, with SF-539 CNS and in the test on CCRF-CEM leukemia was over 100 µM each time. This compound also gave a TGI with SNB-19 CNS of over 100 µM.
For `CC(C)(C)OC(=O)NNC(=O)C1Cc2ccccc2OC1=O` (configuration not stated), the TGI in the test on SW-620 colon, in the test with TK-10 renal, in the test on HOP-62 NSCLC, in the test with KM12 colon, in the test with MALME-3M melanoma and in the test on MDA-MB-435 was over 100 µM in each case. Moreover, the TGI in the test with A549 NSCLC, in the test with OVCAR-3 ovarian, in the test on IGROV1 ovarian, with UACC-257 melanoma, in the test with ACHN renal and in the test on SK-MEL-28 melanoma was over 100 µM throughout. For the same compound, the TGI with SF-539 CNS and in the test on SNB-19 CNS was over 100 µM in each case.
For the compound `CN(C)Cc1cc(C(=O)/C=C/c2ccc(Br)cc2)cc(CN(C)C)c1O`, the TGI in the test on SW-620 colon turned out to be 16 µM; in the test with TK-10 renal it was 27.4 µM; in the test on HOP-62 NSCLC, 17.2 µM; in the test with HL-60(TB) leukemia, 20.5 µM; with KM12 colon it was 5.88 µM; in the test on MALME-3M melanoma, 34.6 µM. Also, the TGI in the test with MDA-MB-435 was determined as 37.9 µM; in the test with A549 NSCLC, 26.2 µM; in the test on OVCAR-3 ovarian, 17 µM; in the test with MDA-MB-231 breast it was 12.1 µM; in the test with IGROV1 ovarian, 26.3 µM; with UACC-257 melanoma it was 19.5 µM. In addition, the TGI worked out at 15 µM in the test on ACHN renal; 37.9 µM with T-47D breast; 28.8 µM with OVCAR-4 ovarian; 25.3 µM in the test with SK-MEL-28 melanoma; 31.9 µM in the test on SF-539 CNS; 26.7 µM in the test on CCRF-CEM leukemia. In the test on SNB-19 CNS, the TGI came out at 26.6 µM.
`CN(C(=O)[C@@H](NC(=O)OC(C)(C)C)c1ccccc1)[C@H]1CCCC[C@@H]1N1CCCC1`: the TGI with SW-620 colon, in the test with TK-10 renal, with HOP-62 NSCLC, in the test on HL-60(TB) leukemia, with KM12 colon and with MDA-MB-435 was over 100 µM each time. Moreover, the TGI in the test on A549 NSCLC, with OVCAR-3 ovarian, in the test on MDA-MB-231 breast, in the test on IGROV1 ovarian, in the test with UACC-257 melanoma and in the test on ACHN renal was over 100 µM each time. Further, the TGI in the test with T-47D breast, with OVCAR-4 ovarian, with SK-MEL-28 melanoma, in the test with SF-539 CNS and in the test on SNB-19 CNS was over 100 µM throughout.
